Laboratory results reported in patent EP4389751A1, “HETEROCYCLIC COMPOUNDS AND USES THEREOF” (Kumquat Biosciences Inc., priority 2021, dated 2024).

Key:
[1] = target: T1, KRAS protein (His-tagged GDP-loaded G12D 1-169) (Homo sapiens, UniProt P01116, G12D); experiment: Covalent modification of KRAS protein, intact-protein LC-MS; format: binding; details: 24hrs at room temperature, KRAS protein ~2 µM
T1 construct: His-tagged GDP-loaded G12D 1-169
How it was run: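 His-tagged GDP-loaded KRAS 1-169 (~2 µM) incubated with compound 24 h at room temperature, then quenched with formic acid. Intact-protein LC-ESI-MS on C4 column; deconvoluted peak intensities of unmodified and adducted protein give percent covalent modification.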

K-Ras G12S = target: T2, K-Ras G12S (Homo sapiens, UniProt P01116, G12S); experiment: HTRF assay of the K-Ras / SOS1 interaction; format: biochemical; details: IC50 (against K-Ras G12D) to IC50 (against K-Ras G12S)
T2 construct: made in house; host or cells: E. coli (e.g., BL21 (DE3))
How it was run: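 GST-K-Ras G12S with anti-GST-Eu donor and His-hSOS1 with anti-6His-XL665 acceptor in ~5 mM HEPES pH 7.4, ~150 mM NaCl, 1 mM DTT, 0.05% BSA, 0.0025% Igepal. Read after ~10 min or longer; IC50 from 665/620 nm ratio, duplicates at 10 µM down to 0.01 µM.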

## N#Cc1ccn(C(=O)N2C3CCC2CN(c2nc(OC[C@@]45CCCN4C[C@H](F)C5)nc4c(F)c(-c5ccc(F)c6sc(N)c(C#N)c56)c(Cl)cc24)C3)n1 [Compound A224, 1-(3-(7-(2-amino-3-cyano-7-fluorobenzo[b]thiophen-4-yl)-6-chloro-8-fluoro-2-(((2R,7aS)-2-fluorotetrahydro-1H-pyrrolizin-7a(5H)-yl)methoxy)quinazolin-4-yl)-3,8-diazabicyclo[3.2. 1]octane-8-carbonyl)-1H-pyrazole-3-carbonitrile]
[1]
  % G12D Modification at 24 hr.: ++ (++ indicates between about 1%- 20% labelling)
K-Ras G12S
  Ratio of IC50 KRAS G12D vs. IC50 KRAS G12S: A (A: indicates that the ratio of IC50 against KrasG12D vs. IC50 against KrasG12S is 1-fold or greater)
